Patent US11524966B1 (Valo Early Discovery, Inc., priority 2017, dated 2022)

Biological target: T1, USP25 (USP25-His6, Boston Biochem E-546) (Homo sapiens, UniProt Q9UHP3)
T1 construct: His6; purchased Boston Biochem E-546
T1 sequence (Q9UHP3 1-1055): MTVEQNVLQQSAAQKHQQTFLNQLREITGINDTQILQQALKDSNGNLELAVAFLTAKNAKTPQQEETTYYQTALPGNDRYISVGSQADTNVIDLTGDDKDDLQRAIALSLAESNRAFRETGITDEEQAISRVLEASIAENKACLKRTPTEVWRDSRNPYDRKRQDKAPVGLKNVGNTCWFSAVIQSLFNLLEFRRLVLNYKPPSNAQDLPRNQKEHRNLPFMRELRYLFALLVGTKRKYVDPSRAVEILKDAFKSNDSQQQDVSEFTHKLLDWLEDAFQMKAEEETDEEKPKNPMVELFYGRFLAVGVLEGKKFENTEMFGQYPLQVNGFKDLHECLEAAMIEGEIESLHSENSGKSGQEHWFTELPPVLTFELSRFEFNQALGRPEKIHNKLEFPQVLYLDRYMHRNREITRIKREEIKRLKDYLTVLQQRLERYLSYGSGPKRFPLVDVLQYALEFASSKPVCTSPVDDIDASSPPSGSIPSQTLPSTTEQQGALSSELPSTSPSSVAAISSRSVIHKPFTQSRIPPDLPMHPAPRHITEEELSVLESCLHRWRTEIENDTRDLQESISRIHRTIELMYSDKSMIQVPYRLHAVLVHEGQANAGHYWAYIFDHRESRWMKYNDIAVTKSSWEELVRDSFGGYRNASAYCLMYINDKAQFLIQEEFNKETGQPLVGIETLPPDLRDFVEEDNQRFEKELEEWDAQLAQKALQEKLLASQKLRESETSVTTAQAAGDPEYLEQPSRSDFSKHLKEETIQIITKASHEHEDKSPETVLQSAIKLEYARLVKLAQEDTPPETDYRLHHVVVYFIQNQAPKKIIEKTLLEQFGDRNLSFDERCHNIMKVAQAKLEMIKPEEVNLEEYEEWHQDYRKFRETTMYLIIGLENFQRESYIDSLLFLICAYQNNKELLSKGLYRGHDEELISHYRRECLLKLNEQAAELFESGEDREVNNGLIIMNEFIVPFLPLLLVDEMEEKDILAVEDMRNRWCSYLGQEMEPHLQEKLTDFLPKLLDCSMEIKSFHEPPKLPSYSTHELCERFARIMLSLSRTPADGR
Test: Ubiquitin-Rhodamine 110 Assay for USP25 Activity, Example A-2
Assay type: biochemical
Conditions: Ub-Rh110 assay, Example A-2; read-out: USP25 A-2 IC50 range
Protocol: The assay was performed in a final volume of 9 μL in assay buffer containing 20 mM Tris-HCl (pH 8.0, (1M Tris-HCl, pH 8.0 solution; Corning 46-031-CM)), 3 mM BME (2-Mercaptoethanol; Sigma 63689-25ML-F), 0.03% BGG (0.22 μM filtered, Sigma, G7516-25G), and 0.01% Triton X-100 (Sigma, T9284-10L). Nanoliter quantities of 10-point, 3-fold serial dilution in DMSO was pre-dispensed into 1536 assay plates (Corning, #3724BC) for a final test concentration of 25 μM to 1.3 nM, top to lowest dose, respectively. Enzyme USP25, construct USP25-His6, (Boston Biochem E-546). Concentration and incubation times were optimized for the maximal signal-to-background while maintaining initial velocity conditions at a fixed substrate concentration. The final concentration of the enzyme in the assay was 75 pM. Final substrate (Ub-Rh110; Ubiquitin-Rhodamine 110, R&D Systems #U-555) concentration was 25 nM with [Ub-Rh110]<<Km. 3 μL of 2× enzyme was added to assay plates (pre-stamped with compound) preincubated with […] for 30 minutes and then 3 μL of 2×Ub-Rh110 was added to assay plates. Plates were incubated for 45 minutes at room temperature before addition of 3 μL of stop solution (final concentration of 10 mM citric acid (Sigma, 251275-500G)). Fluorescence was read on the Envision (Excitation at 485 nm and Emission at 535 nm; Perkin Elmer) or on the PheraSTAR (Excitation at 485 nm and Emission at 535 nm; BMG Labtech).
IC50 values were determined by curve fitting of the standard 4 parameter logistic fitting algorithm included in the Activity Base software package: IDBS XE Designer Model 205. Data is fitted using the Levenburg Marquardt algorithm.

Compound | IC50 [nM]
Cc1ccc2c(N)c(C(=O)N[C@H]3COc4cc(N5CCNCC5)ccc4C3)sc2n1 (single isomer, unassigned) [Example 1-1] | 200 to 2000
Cc1ccc2c(N)c(C(=O)N[C@@H]3COc4cc(N5CCNCC5)ccc4C3)sc2n1 (single isomer, unassigned) [Example 1-2] | > 2000
Cc1ccc2c(N)c(C(=O)N[C@H]3COc4cc(N5CC6CCC(C5)N6)ccc4C3)sc2n1 (single isomer, unassigned) [Example 1-3] | 1 to 50
Cc1ccc2c(N)c(C(=O)N[C@@H]3COc4cc(N5CC6CCC(C5)N6)ccc4C3)sc2n1 (single isomer, unassigned) [Example 1-4] | > 2000
Cc1ccc2c(N)c(C(=O)N[C@H]3COc4cc(N5CC6CCCC(C5)N6)ccc4C3)sc2n1 (single isomer, unassigned) [Example 1-5] | 1 to 50
Cc1ccc2c(N)c(C(=O)N[C@@H]3COc4cc(N5CC6CCCC(C5)N6)ccc4C3)sc2n1 (single isomer, unassigned) [Example 1-6] | > 2000
Cc1ccc2c(N)c(C(=O)N[C@H]3COc4cc(N5CCN[C@H](C)[C@@H]5C)ccc4C3)sc2n1 (single isomer, unassigned) [Example 1-9] | 200 to 2000
Cc1ccc2c(N)c(C(=O)N[C@@H]3COc4cc(N5CCN[C@H](C)[C@@H]5C)ccc4C3)sc2n1 (single isomer, unassigned) [Example 1-10] | 200 to 2000
Cc1ccc2c(N)c(C(=O)N[C@H]3COc4cc(N5CCN[C@H](C)[C@H]5C)ccc4C3)sc2n1 (single isomer, unassigned) [Example 1-11] | 50 to 200
Cc1ccc2c(N)c(C(=O)N[C@@H]3COc4cc(N5CCN[C@H](C)[C@H]5C)ccc4C3)sc2n1 (single isomer, unassigned) [Example 1-12] | 1 to 50
Cc1ccc2c(N)c(C(=O)N[C@H]3COc4cc(N5CCN[C@@H](C)[C@@H]5C)ccc4C3)sc2n1 (single isomer, unassigned) [Example 1-13] | 200 to 2000
Cc1ccc2c(N)c(C(=O)N[C@@H]3COc4cc(N5CCN[C@@H](C)[C@@H]5C)ccc4C3)sc2n1 (single isomer, unassigned) [Example 1-14] | 200 to 2000
Cc1nc2sc(C(=O)N[C@H]3COc4cc(N5CCNCC5)ccc4C3)c(N)c2cc1F (single isomer, unassigned) [Example 1-15] | 50 to 200
Cc1nc2sc(C(=O)N[C@@H]3COc4cc(N5CCNCC5)ccc4C3)c(N)c2cc1F (single isomer, unassigned) [Example 1-16] | > 2000
Nc1c(C(=O)N[C@H]2COc3cc(N4CC5CCC(C4)N5)ccc3C2)sc2ncc(F)cc12 (single isomer, unassigned) [Example 1-17] | 200 to 2000
Nc1c(C(=O)N[C@@H]2COc3cc(N4CC5CCC(C4)N5)ccc3C2)sc2ncc(F)cc12 (single isomer, unassigned) [Example 1-18] | > 2000
Cc1cnc2c(N)c(C(=O)N[C@H]3COc4cc(N5CCNCC5)ccc4C3)sc2n1 (single isomer, unassigned) [Example 1-21] | 200 to 2000
Cc1cnc2c(N)c(C(=O)N[C@@H]3COc4cc(N5CCNCC5)ccc4C3)sc2n1 (single isomer, unassigned) [Example 1-22] | > 2000
CCn1ccc2cc(C(=O)N[C@@H]3COc4cc(N5CC6CCC(C5)N6)ccc4C3)cnc21 (single isomer, unassigned) [Example 1-27] | > 2000
CCn1ccc2cc(C(=O)N[C@H]3COc4cc(N5CC6CCC(C5)N6)ccc4C3)cnc21 (single isomer, unassigned) [Example 1-28] | 50 to 200

Compound | IC50 [nM]
Cc1ccc2c(N)c(C(=O)N[C@@H]3COc4cc(N5CC6CCC(C5)N6)cc(F)c4C3)sc2n1 (single isomer, unassigned) [Example 1-30] | > 2000
Cc1ccc2c(N)c(C(=O)N[C@H]3COc4cc(N5CCNCC5)c(OC(F)(F)F)cc4C3)sc2n1 (single isomer, unassigned) [Example 1-31] | > 2000
Cc1ccc2c(N)c(C(=O)N[C@@H]3COc4cc(N5CCNCC5)c(OC(F)(F)F)cc4C3)sc2n1 (single isomer, unassigned) [Example 1-32] | 200 to 2000
Cc1nc2sc(C(=O)N[C@H]3COc4cc(N5CCNCC5)cc(F)c4C3)c(N)c2s1 (single isomer, unassigned) [Example 1-37] | > 2000
Cc1nc2sc(C(=O)N[C@@H]3COc4cc(N5CCNCC5)cc(F)c4C3)c(N)c2s1 (single isomer, unassigned) [Example 1-38] | 200 to 2000
Cc1nc2sc(C(=O)N[C@H]3COc4cc(N5CC6CCC(C5)N6)cc(F)c4C3)c(N)c2s1 (single isomer, unassigned) [Example 1-39] | 200 to 2000
Cc1nc2sc(C(=O)N[C@@H]3COc4cc(N5CC6CCC(C5)N6)cc(F)c4C3)c(N)c2s1 (single isomer, unassigned) [Example 1-40] | > 2000
Cc1ccc2c(N)c(C(=O)N[C@@H]3COc4cc(N5CC6CC(C5)N6)cc(F)c4C3)sc2n1 (single isomer, unassigned) [Example 1-41] | 50 to 200
Cc1ccc2c(N)c(C(=O)N[C@H]3COc4cc(N5CC6CC(C5)N6)cc(F)c4C3)sc2n1 (single isomer, unassigned) [Example 1-42] | > 2000
Cc1cnc2c(N)c(C(=O)N[C@H]3CCc4cc(N5CCNCC5)c(C)cc4C3)sc2n1 (single isomer, unassigned) [Example 2-34] | > 2000
Cc1cnc2c(N)c(C(=O)N[C@@H]3CCc4cc(N5CCNCC5)c(C)cc4C3)sc2n1 (single isomer, unassigned) [Example 2-35] | > 2000
Cc1cnc2c(N)c(C(=O)N[C@H]3CCc4c(ccc(N5CCNCC5)c4C)C3)sc2n1 (single isomer, unassigned) [Example 2-36] | > 2000
Cc1cnc2c(N)c(C(=O)N[C@@H]3CCc4c(ccc(N5CCNCC5)c4C)C3)sc2n1 (single isomer, unassigned) [Example 2-37] | 200 to 2000
CO[C@H]1CN(c2ccc3c(c2)OC[C@H](NC(=O)c2sc4nc(C)ccc4c2N)C3)C[C@@H]1N (single isomer, unassigned) [Example 3-1] | 200 to 2000
CO[C@@H]1CN(c2ccc3c(c2)OC[C@H](NC(=O)c2sc4nc(C)ccc4c2N)C3)C[C@H]1N (single isomer, unassigned) [Example 3-2] | 200 to 2000
Cc1ccc2c(N)c(C(=O)N[C@H]3COc4cc(N5CCC[C@@](N)(C(F)(F)F)C5)ccc4C3)sc2n1 (single isomer, unassigned) [Example 3-3] | 50 to 200
Cc1ccc2c(N)c(C(=O)N[C@H]3COc4cc(N5CCC[C@](N)(C(F)(F)F)C5)ccc4C3)sc2n1 (single isomer, unassigned) [Example 3-4] | 200 to 2000
Cc1nc2sc(C(=O)N[C@H]3COc4cc(N5CC6CCC(C5)N6)ccc4C3)c(N)c2s1 [Example 1-23, N-((3R)-7-(3,8-diazabicyclo[3.2.1]octan-3-yl)chroman-3-yl)-6-amino-2-methylthieno[2,3-d]thiazole-5-carboxamide] | 200 to 2000
Cc1nc2sc(C(=O)N[C@@H]3COc4cc(N5CC6CCC(C5)N6)ccc4C3)c(N)c2s1 [Example 1-24, N-((3S)-7-(3,8-diazabicyclo[3.2.1]octan-3-yl)chroman-3-yl)-6-amino-2-methylthieno[2,3-d]thiazole-5-carboxamide] | > 2000
